The record followed here is publication PMC6014988, “Precision therapeutic targeting of human cancer cell motility” (Nature Communications, 2018).

Structures are written as SMILES.

The target in series [1] is T1, General transcription factor II-I (Homo sapiens, UniProt P78347).
T1 construct: purchased Invitrogen
Description: ProtoArray binding, General transcription factor II-I. The following applies: 10 fold excess free KBU2046. The procedure: The ProtoArray® assay, using the Human Protein Microarray platform, was performed by Invitrogen. […]
(d) Protein array hybridization. KBU2046-biotin was hybridized to ProtoArray® Human Protein Microarray’s at 0.5 and 10 µM with and without 10 fold excess free KBU2046. We first sought proteins that met the following criteria, and did so at both 0.5 and 10 µM concentrations of KBU2046-biotin (in the absence of free KBU2046): Z-Score greater than 2.5, Z-Factor greater than 0.5, CI P-value less than 0.05, negative control value <2,000 (relative fluorescence units; RFUs), and a signal/negative control signal of >10 and >5 for 10 µM and 0.5 µM conditions, respectively. This yielded 3 proteins, shown in table, for an initial hit rate of 0.03%. We then required free KBU2046 to inhibit binding by >75%. […]
There were two additional notable findings from protein array studies. First, the positive control used in protein arrays was staurosporine. Staurosporine is similar to genistein in that both are small compound natural products that are broad spectrum kinase inhibitors. In contrast to the lack of binding by KBU2046-biotin, staurosporine bound to 214 proteins at levels that were >/= 10 fold above that of background. The vast majority of these proteins were kinases. Second, both HSP90β and CDC37 were present on the protein arrays, and were not bound by KBU2046-

The target in series [2] is T2, client kinase binding to CDC37/HSP90β heterocomplexes in HEK293T cells (Homo sapiens, UniProt P08238+Q16543).
T2 construct: expressed in transfected cells; host or cells: HEK293T
T2 sequence (P08238 whole entry): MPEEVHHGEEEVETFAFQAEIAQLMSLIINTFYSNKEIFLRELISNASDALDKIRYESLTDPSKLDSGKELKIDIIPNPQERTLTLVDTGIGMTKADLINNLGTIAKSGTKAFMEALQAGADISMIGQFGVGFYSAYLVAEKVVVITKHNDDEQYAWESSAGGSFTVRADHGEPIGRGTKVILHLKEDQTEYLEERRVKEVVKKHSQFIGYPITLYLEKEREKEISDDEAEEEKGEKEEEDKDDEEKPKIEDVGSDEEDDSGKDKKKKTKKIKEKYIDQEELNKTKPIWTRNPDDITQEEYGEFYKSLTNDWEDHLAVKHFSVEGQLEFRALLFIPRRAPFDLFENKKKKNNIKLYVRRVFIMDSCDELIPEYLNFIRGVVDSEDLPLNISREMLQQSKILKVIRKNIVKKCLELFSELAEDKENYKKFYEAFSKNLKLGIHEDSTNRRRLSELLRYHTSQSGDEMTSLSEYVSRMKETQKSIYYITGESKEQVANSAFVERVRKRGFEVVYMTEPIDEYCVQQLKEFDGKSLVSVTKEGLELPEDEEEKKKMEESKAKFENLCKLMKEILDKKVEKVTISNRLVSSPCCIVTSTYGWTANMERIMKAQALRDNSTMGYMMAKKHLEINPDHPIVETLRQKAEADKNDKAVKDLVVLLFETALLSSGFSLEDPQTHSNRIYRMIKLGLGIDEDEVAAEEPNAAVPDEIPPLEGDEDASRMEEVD
T2 sequence (Q16543 whole entry): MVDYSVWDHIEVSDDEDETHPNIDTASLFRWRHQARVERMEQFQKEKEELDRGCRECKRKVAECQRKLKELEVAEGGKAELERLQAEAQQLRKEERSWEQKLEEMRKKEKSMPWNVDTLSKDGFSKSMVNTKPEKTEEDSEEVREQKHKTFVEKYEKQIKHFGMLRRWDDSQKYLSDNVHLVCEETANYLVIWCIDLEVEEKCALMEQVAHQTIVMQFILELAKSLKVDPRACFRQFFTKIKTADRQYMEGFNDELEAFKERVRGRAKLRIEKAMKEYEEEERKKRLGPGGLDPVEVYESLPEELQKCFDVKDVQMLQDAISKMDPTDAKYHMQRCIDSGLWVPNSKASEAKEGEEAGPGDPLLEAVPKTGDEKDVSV
Description: LUMIER assay of client kinase binding. Format: cell-based. How it is done: The LUMIER assay was performed as described, using reagents generously provided by that group.
Supplementary Figures 17. KBU2046-mediated changes in the signature of client proteins bound to HSP90β/CDC37 mediate effects upon cell motility.
LUMIER assay (a). HEK293T cells stably transfected with HSP90β-luciferase were transfected with 1 of 420 different FLAG-tagged protein kinases, treated with 10 µM KBU2046 for 3 days, and LUMIER assays performed as described 12. All experiments had N = 5 vehicle treated control plus N = 5 KBU2046 treated separate wells of cells. Those yielding a t-test p value <0.05 […]
in experiment #1, or those whose values were at or below baseline, were repeated in experiment […]
hetercomplex association with KBU2046 treatment in the same direction in both experiments were selected. Of 420 kinase proteins tested, 17 (4%) met these criteria (graphically depicted in manuscript Fig. 6a). For these 17 kinases, the experiment was repeated except that HEK293T cells were treated with TGFβ for the last 24 hrs of the 3 day incubation (graphically depicted in manuscript Fig. 6b). Wound healing assay (b-d). […]

Series [3] can be described thus: Three-day MTT cell growth inhibition assay, 1542CPTX. In kind it is cell-based, human. The following applies: human, 1542CPTX cells.
A further series has as its system 1542CPTX. The description is as above. Format: cell-based, human. The following applies: Homo sapiens, 72 h, 3 days.
For a further series, the target named is MKK4 (Homo sapiens, UniProt P45985). Nature of the series: MKK4 in vitro kinase assay. Format: biochemical. How it is done:
MEK4/MKK4/MAP2K4 in vitro kinase assay was performed as described by us[45].
Supplementary Figure 9. […] (a) Depiction of […]
established MKK4 pathway regulating human PCa cell metastasis. […]
to MKK4, as measured by fluorescence-based thermal shift assay. Values are the mean±SD (of N=2 replicates) increase in melting temperature (ΔTm) of purified recombinant MKK4 induced by the indicated concentrations of KBU2046 or genistein. […]
in an in vitro kinase assay. The indicated concentrations of KBU2046 were added to recombinant activated MKK4, and its ability to phosphorylate kinase dead p38α MAPK (K53A) was measured by Western blot for total (p38 MAPK) and phosphorylated (pp38 MAPK) forms of […]
HSP27 in cells. PC3-M cells were pre-treated for 24 hours with 50 µM KBU2046 or genistein, as indicated, then with TGFβ, and Western blot performed. All findings are from a single experiment, with similar findings in identical separate experiments, repeated at least once. […]

Usually viability stands for a read-out of living cells in per cent, often relative to untreated cells. The IC20 is the concentration needed for an effect of 20%. The low end stands for greater potency, the high end for weaker potency. In general, IC50 refers to the point on the concentration scale where inhibition reaches its midpoint. Read a high IC50 as weaker potency.

T1 sequence (P78347 whole entry): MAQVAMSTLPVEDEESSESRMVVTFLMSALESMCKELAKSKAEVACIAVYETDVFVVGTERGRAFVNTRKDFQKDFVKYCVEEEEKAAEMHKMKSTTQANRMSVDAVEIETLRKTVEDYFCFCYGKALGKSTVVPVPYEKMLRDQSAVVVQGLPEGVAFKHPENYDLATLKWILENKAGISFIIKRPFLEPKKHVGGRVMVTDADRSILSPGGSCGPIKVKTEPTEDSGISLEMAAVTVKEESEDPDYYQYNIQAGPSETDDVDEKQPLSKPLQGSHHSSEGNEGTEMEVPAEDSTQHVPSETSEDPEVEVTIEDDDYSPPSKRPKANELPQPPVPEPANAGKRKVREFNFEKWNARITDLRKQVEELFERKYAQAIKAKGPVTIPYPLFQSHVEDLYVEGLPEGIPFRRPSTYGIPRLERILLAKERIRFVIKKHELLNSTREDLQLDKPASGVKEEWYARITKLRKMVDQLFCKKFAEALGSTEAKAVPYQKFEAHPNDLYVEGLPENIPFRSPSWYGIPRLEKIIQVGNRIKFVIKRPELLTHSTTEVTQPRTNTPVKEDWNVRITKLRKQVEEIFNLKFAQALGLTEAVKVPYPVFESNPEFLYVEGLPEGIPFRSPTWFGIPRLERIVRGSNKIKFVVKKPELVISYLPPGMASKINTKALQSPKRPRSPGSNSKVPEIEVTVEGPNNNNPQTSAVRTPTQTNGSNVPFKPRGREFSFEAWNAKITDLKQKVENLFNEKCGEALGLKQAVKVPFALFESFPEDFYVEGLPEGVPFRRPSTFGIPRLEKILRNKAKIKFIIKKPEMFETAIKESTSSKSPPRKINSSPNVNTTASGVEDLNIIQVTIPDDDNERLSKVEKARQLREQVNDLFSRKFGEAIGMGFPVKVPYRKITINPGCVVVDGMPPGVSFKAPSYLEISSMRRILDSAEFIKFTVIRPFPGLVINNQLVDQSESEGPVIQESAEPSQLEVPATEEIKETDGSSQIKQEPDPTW
MKK4, sequence (P45985 whole entry): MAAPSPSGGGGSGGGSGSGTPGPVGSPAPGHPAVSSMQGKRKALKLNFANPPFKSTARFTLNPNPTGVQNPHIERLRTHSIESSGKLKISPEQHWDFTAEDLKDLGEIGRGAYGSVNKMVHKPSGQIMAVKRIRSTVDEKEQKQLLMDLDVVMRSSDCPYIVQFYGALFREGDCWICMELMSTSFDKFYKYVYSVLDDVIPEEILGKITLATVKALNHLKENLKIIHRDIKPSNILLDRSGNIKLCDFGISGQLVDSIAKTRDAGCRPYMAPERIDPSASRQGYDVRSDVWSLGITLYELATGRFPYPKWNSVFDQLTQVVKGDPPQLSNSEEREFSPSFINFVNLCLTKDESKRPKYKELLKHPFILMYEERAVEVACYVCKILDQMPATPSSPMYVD

On to `O=C1c2ccccc2OCC1c1ccc(F)cc1` (racemic) [KBU2046, (±)-3(4-fluorophenyl)chroman-4-one], for which, in series [1] (0.5 uM KBU2046-biotin), the “% inhibition by competitor” value turned out to be 64%. The “% inhibition by competitor” value in series [1] (10 uM KBU2046-biotin) is reported as 43%. Besides, in series [2] (10 µM, 3 days), the “number of kinases with decreased binding” value came to 7 and the “number of kinases with increased binding” value is 10. In series [2] (TGFβ-treated cells), the “RAF1 binding to complexes” value is “decreased binding”, the “RIPK1 binding to complexes” value is recorded as “decreased” and the “SGK3 binding to complexes” value is on record as “increased”. The “share of client proteins with affected binding” value in series [2] (as stated in rebuttal letter) worked out at 1%. Besides, the “CK2 binding to the HSP90β/CDC37 heterocomplex” value in series [2] (in cells) is “not alter the binding of CK2”. Moreover, in series [2] (of 420 kinase proteins screened), the “share of kinases with significantly changed binding” value stood at 4%. Moreover, the “number of kinases with significantly changed binding” value in series [2] (of 420 kinase proteins screened, 10 µM, 3 days) is given as 17. Besides, the viability at 3 days, 50 µM in series [3] was 104%. In addition, in the series with 1542CPTX, the IC20 was greater than 50 µM and the IC50 was greater than 50 µM. For the same molecule, the “inhibition of MKK4 kinase activity” value against MKK4 is recorded as “nor inhibit its kinase activity”.
